Results from PubChem BioAssay (NCI).
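GI50 = concentration required for 50% inhibition of growth. The concentration for full growth arrest is given as TGI.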

Experiments:
Experiment in all cases: growth of human tumour cells (NCI), 384-well format
[1] = test system: KM12 colon
[2] = test system: HCT-15 colon
[3] = test system: BT-549 breast
[4] = test system: U251 glioblastoma
[5] = test system: DU-145 prostate
[6] = test system: SN12C renal
[7] = test system: MOLT-4 leukemia
[8] = test system: MALME-3M melanoma
[9] = test system: UACC-62 melanoma
[10] = test system: CCRF-CEM leukemia
[11] = test system: PC-3 prostate
[12] = test system: MDA-MB-231 breast
[13] = test system: SK-MEL-28 melanoma
[14] = test system: SW-620 colon
[15] = test system: IGROV1 ovarian
[16] = test system: NCI-H23 lung
[17] = test system: SNB-19 CNS
[18] = test system: HL-60(TB) leukemia
[19] = test system: SF-295 CNS
[20] = test system: A549 NSCLC
[21] = test system: UO-31 renal
[22] = test system: SF-539 CNS
[23] = test system: NCI/ADR-RES ovarian
[24] = test system: M14 melanoma
[25] = test system: NCI-H460 NSCLC
[26] = test system: NCI-H522 lung
[27] = test system: HCC-2998 colon
[28] = test system: HS 578T breast
[29] = test system: HCT-116 colon
[30] = test system: A498 renal
[31] = test system: SF-268 CNS
[32] = test system: RPMI-8226 leukemia
[33] = test system: RXF 393 renal
[34] = test system: HOP-62 NSCLC
[35] = test system: CAKI-1 renal
[36] = test system: SR leukemia
[37] = test system: MDA-MB-468 breast
[38] = test system: LOX IMVI melanoma
[39] = test system: SK-OV-3 ovarian
[40] = test system: TK-10 renal
[41] = test system: OVCAR-8 ovarian
[42] = test system: MCF7 breast
[43] = test system: 786-0 renal
[44] = test system: HOP-92 NSCLC
[45] = test system: MDA-MB-435 melanoma
[46] = test system: COLO 205 colon
[47] = test system: NCI-H226 lung

CN1CCN(c2ccc(-c3cccc(CN4CCOCC4)c3)cc2NC(=O)c2c[nH]c(=O)cc2C(F)(F)F)CC1
GI50 [1]: 15.9 µM | TGI [1]: > 87.6 µM | GI50 [2]: 12.3 µM | TGI [2]: 44.8 µM | GI50 [3]: 26.5 µM | TGI [3]: > 68.5 µM | GI50 [4]: 12.1 µM | TGI [4]: 30.9 µM | GI50 [5]: 19.5 µM | TGI [5]: > 100 µM | GI50 [6]: > 62.1 µM | TGI [6]: > 100 µM | GI50 [7]: 5.86 µM | TGI [7]: 11.5 µM | GI50 [8]: 14.7 µM | TGI [8]: 28.1 µM | GI50 [9]: 19 µM | TGI [9]: 62.8 µM | GI50 [10]: 6.98 µM | TGI [10]: 13.8 µM | GI50 [11]: 27 µM | TGI [11]: > 94.6 µM | GI50 [12]: 25.6 µM | TGI [12]: > 94 µM | GI50 [13]: 17 µM | TGI [13]: 31 µM | GI50 [14]: 11.7 µM | TGI [14]: > 45.2 µM | GI50 [15]: 31.3 µM | TGI [15]: 98.2 µM | GI50 [16]: 17.3 µM | TGI [16]: > 86.1 µM | GI50 [17]: 46.3 µM | TGI [17]: > 100 µM | GI50 [18]: 8.87 µM | TGI [18]: 20.1 µM | GI50 [19]: 17.8 µM | TGI [19]: 56.8 µM | GI50 [20]: 14.4 µM | TGI [20]: > 100 µM | GI50 [21]: 14.5 µM | TGI [21]: > 100 µM | GI50 [22]: 12.3 µM | TGI [22]: 28.7 µM | GI50 [23]: > 58.1 µM | TGI [23]: > 100 µM | GI50 [24]: 16 µM | TGI [24]: 29.8 µM | GI50 [25]: 8.79 µM | TGI [25]: 23.5 µM | GI50 [26]: 22.8 µM | TGI [26]: 69.6 µM | GI50 [27]: 29.9 µM | TGI [27]: > 63.9 µM | GI50 [28]: 12.2 µM | TGI [28]: 34.4 µM | GI50 [29]: 12.7 µM | TGI [29]: > 78.2 µM | GI50 [30]: 17.3 µM | TGI [30]: 40.7 µM | GI50 [31]: 14.7 µM | TGI [31]: > 29.6 µM | GI50 [32]: 17.9 µM | TGI [32]: 43.4 µM | GI50 [33]: 11.4 µM | TGI [33]: 33.3 µM | GI50 [34]: 21 µM | TGI [34]: > 65.3 µM | GI50 [35]: 25 µM | TGI [35]: > 100 µM | GI50 [36]: 12.2 µM | TGI [36]: 24.8 µM | GI50 [37]: 12 µM | TGI [37]: 28.9 µM | GI50 [38]: 9.13 µM | TGI [38]: 23 µM | GI50 [39]: > 61.1 µM | TGI [39]: > 100 µM | GI50 [40]: 30.5 µM | TGI [40]: > 90.4 µM | GI50 [41]: 18.3 µM | TGI [41]: > 100 µM | GI50 [42]: 16.8 µM | TGI [42]: > 62.7 µM | GI50 [43]: 10.4 µM | TGI [43]: 34.2 µM | GI50 [44]: 24.9 µM | TGI [44]: > 77.4 µM | GI50 [45]: 31.7 µM | TGI [45]: > 100 µM | GI50 [46]: 8.59 µM | TGI [46]: > 89 µM | GI50 [47]: 52.5 µM | TGI [47]: > 100 µM

c1ccc2c(NCCCN3CCN(CCCNc4c5ccccc5nc5ccccc45)CC3)c3ccccc3nc2c1
GI50 [1]: 0.539 µM | TGI [1]: 2.26 µM | GI50 [2]: 2.58 µM | TGI [2]: 8.97 µM | GI50 [3]: 1.2 µM | TGI [3]: 2.57 µM | GI50 [4]: 0.223 µM | TGI [4]: 0.766 µM | GI50 [5]: 0.683 µM | TGI [5]: 3.49 µM | GI50 [6]: 0.0816 µM | TGI [6]: 0.348 µM | GI50 [7]: 0.0232 µM | TGI [7]: 0.0509 µM | GI50 [8]: 0.702 µM | TGI [8]: 1.88 µM | GI50 [9]: 0.336 µM | TGI [9]: 1.15 µM | GI50 [10]: 0.118 µM | TGI [10]: 0.551 µM | GI50 [11]: 1.39 µM | TGI [11]: 3.75 µM | GI50 [12]: 0.506 µM | TGI [12]: 2.06 µM | GI50 [13]: 1.82 µM | TGI [13]: 3.24 µM | GI50 [14]: 0.452 µM | TGI [14]: 2.35 µM | GI50 [15]: 0.228 µM | TGI [15]: 1.43 µM | GI50 [16]: 0.327 µM | TGI [16]: 1.34 µM | GI50 [17]: 0.433 µM | TGI [17]: 6.93 µM | GI50 [18]: 0.108 µM | TGI [18]: 0.243 µM | GI50 [19]: 1.03 µM | TGI [19]: 3.49 µM | GI50 [20]: 0.445 µM | TGI [20]: 1.93 µM | GI50 [21]: 1.78 µM | TGI [21]: 4.05 µM | GI50 [22]: 0.159 µM | TGI [22]: 1.23 µM | GI50 [23]: 5.28 µM | TGI [23]: > 100 µM | GI50 [24]: 1.32 µM | TGI [24]: 2.63 µM | GI50 [25]: 0.17 µM | TGI [25]: 0.384 µM | GI50 [26]: 0.0647 µM | TGI [26]: 0.26 µM | GI50 [27]: 0.391 µM | TGI [27]: 1.51 µM | GI50 [28]: 0.174 µM | TGI [28]: 1.17 µM | GI50 [29]: 0.267 µM | TGI [29]: 1.28 µM | GI50 [30]: 0.504 µM | TGI [30]: 2.05 µM | GI50 [31]: 0.301 µM | TGI [31]: 1.19 µM | GI50 [32]: 0.134 µM | TGI [32]: 0.291 µM | GI50 [33]: 0.421 µM | TGI [33]: 1.46 µM | GI50 [34]: 0.0964 µM | TGI [34]: 0.463 µM | GI50 [35]: 0.929 µM | TGI [35]: 4.69 µM | GI50 [36]: 0.155 µM | TGI [36]: 0.328 µM | GI50 [37]: 0.305 µM | TGI [37]: 0.67 µM | GI50 [38]: 0.665 µM | TGI [38]: 1.86 µM | GI50 [39]: 0.458 µM | TGI [39]: 2.45 µM | GI50 [40]: 0.605 µM | TGI [40]: 3.16 µM | GI50 [41]: 0.296 µM | TGI [41]: 1.56 µM | GI50 [42]: 0.208 µM | TGI [42]: 0.909 µM | GI50 [43]: 0.204 µM | TGI [43]: 1.47 µM | GI50 [44]: 0.425 µM | TGI [44]: 2.45 µM | GI50 [45]: 1.26 µM | TGI [45]: 2.54 µM | GI50 [46]: 1.28 µM | TGI [46]: 3.06 µM | GI50 [47]: 0.161 µM | TGI [47]: 1.19 µM
